Assay results: ChEMBL document CHEMBL1671652, “Efficacy of piperacillin combined with the Penem beta-lactamase inhibitor BLI-489 in murine models of systemic infection” (2009)
≈ marks a conversion by molar mass, not a printed value.

Assays:
[1] = test system: Escherichia coli; assay: Antimicrobial activity against OXA-1 beta-lactamase producing Escherichia coli GAR 5946 infected in CD-1 mouse treated 30 and 150 mins postinfection; type: functional
[2] = test system: Enterobacter cloacae; assay: Antimicrobial activity against AmpC beta-lactamase producing Enterobacter cloacae GC 4142 infected in CD-1 mouse treated 30 and 150 mins postinfection in presence of beta-lactamase inhibitor Tazobactam; type: functional
[3] = test system: Klebsiella pneumoniae; assay: Antimicrobial activity against SHV-1and SHV-5 beta-lactamase producing Klebsiella pneumoniae GAR 7978 by broth microdilution method; type: functional
[4] = test system: Salmonella typhimurium; assay: Antimicrobial activity against CTX-M-5 beta-lactamase producing Salmonella enterica serovar Typhimurium GC 4195 infected in CD-1 mouse treated 30 and 150 mins postinfection in presence of 8:1 ratio of compound to beta-lactamase inhibitor BLI-489; type: functional, Salmonella enterica subsp. enterica serovar Typhimurium
[5] = test system: Escherichia coli; assay: Antimicrobial activity against TEM-1 beta-lactamase producing Escherichia coli GC 6265 infected in CD-1 mouse treated 30 mins postinfection in presence of 14:1 ratio of compound to beta-lactamase inhibitor BLI-489; type: functional; conditions: GC 6265, 0.5 h
[6] = test system: Escherichia coli; assay: Antimicrobial activity against TEM-10 beta-lactamase producing Escherichia coli GC 2022 by broth microdilution method in presence of beta-lactamase inhibitor Tazobactam; type: functional
[7] = test system: Klebsiella pneumoniae; assay: Antimicrobial activity against SHV-1and SHV-5 beta-lactamase producing Klebsiella pneumoniae GAR 7978 infected in CD-1 mouse treated 30 and 150 mins postinfection in presence of 8:1 ratio of compound to beta-lactamase inhibitor BLI-489; type: functional
[8] = test system: Escherichia coli; assay: Antimicrobial activity against TEM-1 beta-lactamase producing Escherichia coli GC 6265 infected in CD-1 mouse treated 30 mins postinfection in presence of 4:1 ratio of compound to beta-lactamase inhibitor BLI-489; type: functional; conditions: GC 6265, 0.5 h
[9] = test system: Staphylococcus aureus; assay: Antimicrobial activity against penicillinase producing Staphylococcus aureus GC 6468 infected in CD-1 mouse treated 30 and 150 mins postinfection; type: functional
[10] = test system: Klebsiella pneumoniae; assay: Antimicrobial activity against SHV-11 beta-lactamase producing Klebsiella pneumoniae GAR 7693 by broth microdilution method; type: functional
[11] = test system: Escherichia coli; assay: Antimicrobial activity against TEM-1 beta-lactamase producing Escherichia coli GC 6265 infected in CD-1 mouse treated 30 mins postinfection in presence of beta-lactamase inhibitor Tazobactam; type: functional; conditions: GC 6265, 0.5 h
[12] = test system: Enterobacter cloacae; assay: Antimicrobial activity against AmpC beta-lactamase producing Enterobacter cloacae GC 4142 infected in CD-1 mouse treated 30 and 150 min postinfection in presence of 4:1 ratio of compound to beta-lactamase inhibitor BLI-489; type: functional
[13] = test system: Salmonella typhimurium; assay: Antimicrobial activity against CTX-M-5 beta-lactamase producing Salmonella enterica serovar Typhimurium GC 4195 infected in CD-1 mouse treated 30 and 150 mins postinfection in presence of beta-lactamase inhibitor Tazobactam; type: functional, Salmonella enterica subsp. enterica serovar Typhimurium
[14] = test system: Enterobacter cloacae; assay: Antimicrobial activity against AmpC beta-lactamase producing Enterobacter cloacae GC 4142 by broth microdilution method; type: functional
[15] = test system: Enterobacter cloacae; assay: Antimicrobial activity against AmpC beta-lactamase producing Enterobacter cloacae GC 4142 by broth microdilution method in presence of 8:1 ratio of compound to beta-lactamase inhibitor BLI-489; type: functional
[16] = test system: Enterobacter cloacae; assay: Antimicrobial activity against AmpC beta-lactamase producing Enterobacter cloacae GC 4142 infected in CD-1 mouse treated 30 and 150 min postinfection in presence of 6:1 ratio of compound to beta-lactamase inhibitor BLI-489; type: functional
[17] = test system: Enterobacter cloacae; assay: Antimicrobial activity against AmpC beta-lactamase producing Enterobacter cloacae GC 4142 infected in CD-1 mouse treated 30 and 150 min postinfection in presence of 10:1 ratio of compound to beta-lactamase inhibitor BLI-489; type: functional
[18] = test system: Pseudomonas aeruginosa; assay: Antimicrobial activity against AmpC beta-lactamase producing Pseudomonas aeruginosa GC 1764 by broth microdilution method in presence of 8:1 ratio of compound to beta-lactamase inhibitor BLI-489; type: functional
[19] = test system: Enterobacter cloacae; assay: Antimicrobial activity against AmpC beta-lactamase producing Enterobacter cloacae GC 4142 infected in CD-1 mouse treated 30 and 150 min postinfection in presence of 8:1 ratio of compound to beta-lactamase inhibitor BLI-489; type: functional
[20] = test system: Enterobacter cloacae; assay: Antimicrobial activity against AmpC beta-lactamase producing Enterobacter cloacae GC 4142 by broth microdilution method in presence of beta-lactamase inhibitor Tazobactam; type: functional
[21] = test system: Escherichia coli; assay: Antimicrobial activity against TEM-10 beta-lactamase producing Escherichia coli GC 2022 infected in CD-1 mouse treated 30 mins postinfection in presence of 8:1 ratio of compound to beta-lactamase inhibitor BLI-489; type: functional; conditions: GC 2022, 0.5 h
[22] = test system: Klebsiella pneumoniae; assay: Antimicrobial activity against SHV-11 beta-lactamase producing Klebsiella pneumoniae GAR 7693 by broth microdilution method in presence of beta-lactamase inhibitor Tazobactam; type: functional
[23] = test system: Pseudomonas aeruginosa; assay: Antimicrobial activity against AmpC beta-lactamase producing Pseudomonas aeruginosa GC 1764 infected in CD-1 mouse treated 30 and 150 mins postinfection in presence of beta-lactamase inhibitor Tazobactam; type: functional
[24] = test system: Klebsiella pneumoniae; assay: Antimicrobial activity against SHV-1and SHV-5 beta-lactamase producing Klebsiella pneumoniae GAR 7978 by broth microdilution method in presence of 8:1 ratio of compound to beta-lactamase inhibitor BLI-489; type: functional
[25] = test system: Klebsiella pneumoniae; assay: Antimicrobial activity against SHV-11beta-lactamase producing Klebsiella pneumoniae GAR 7693 infected in CD-1 mouse treated 30 and 150 mins postinfection in presence of beta-lactamase inhibitor Tazobactam; type: functional
[26] = test system: Escherichia coli; assay: Antimicrobial activity against OXA-1 beta-lactamase producing Escherichia coli GAR 5946 infected in CD-1 mouse treated 30 and 150 mins postinfection in presence of beta-lactamase inhibitor Tazobactam; type: functional
[27] = test system: Enterobacter cloacae; assay: Antimicrobial activity against AmpC beta-lactamase producing Enterobacter cloacae GC 4142 infected in CD-1 mouse treated 30 and 150 min postinfection in presence of 14:1 ratio of compound to beta-lactamase inhibitor BLI-489; type: functional
[28] = test system: Escherichia coli; assay: Antimicrobial activity against OXA-1 beta-lactamase producing Escherichia coli GAR 5946 by broth microdilution method in presence of beta-lactamase inhibitor Tazobactam; type: functional
[29] = test system: Klebsiella pneumoniae; assay: Antimicrobial activity against SHV-1and SHV-5 beta-lactamase producing Klebsiella pneumoniae GAR 7978 infected in CD-1 mouse treated 30 and 150 mins postinfection in presence of beta-lactamase inhibitor Tazobactam; type: functional
[30] = test system: Pseudomonas aeruginosa; assay: Antimicrobial activity against AmpC beta-lactamase producing Pseudomonas aeruginosa GC 1764 by broth microdilution method; type: functional
[31] = test system: Escherichia coli; assay: Antimicrobial activity against ACT-1 beta-lactamase producing Escherichia coli GC 2814 infected in CD-1 mouse treated 30 and 150 mins postinfection in presence of beta-lactamase inhibitor Tazobactam; type: functional
[32] = test system: Salmonella typhimurium; assay: Antimicrobial activity against CTX-M-5 beta-lactamase producing Salmonella enterica serovar Typhimurium GC 4195 by broth microdilution method; type: functional, Salmonella enterica subsp. enterica serovar Typhimurium
[33] = test system: Escherichia coli; assay: Antimicrobial activity against ACT-1 beta-lactamase producing Escherichia coli GC 2814 by broth microdilution method in presence of beta-lactamase inhibitor Tazobactam; type: functional
[34] = test system: Escherichia coli; assay: Antimicrobial activity against TEM-1 beta-lactamase producing Escherichia coli GC 6265 by broth microdilution method; type: functional
[35] = test system: Escherichia coli; assay: Antimicrobial activity against TEM-1 beta-lactamase producing Escherichia coli GC 6265 by broth microdilution method in presence of beta-lactamase inhibitor Tazobactam; type: functional

In the case of `CCN1CCN(C(=O)N[C@@H](C(=O)N[C@@H]2C(=O)N3[C@@H]2SC(C)(C)[C@@H]3C(=O)O)c2ccccc2)C(=O)C1=O` [PIPERACILLIN], the ED50 [1] is reported as 980 mg/kg, the ED50 [2] is reported as 71 mg/kg and the MIC [3] is reported as greater than 64 µg/mL. For the same compound, the ED50 [4] was 45 mg/kg, the ED50 [5] was 16 mg/kg and the MIC [6] was 2 µg/mL. For the same compound, the ED50 [7] was 28 mg/kg, the ED50 [8] was 12 mg/kg and the ED50 [9] was 418 mg/kg. The MIC [10] was 2 µg/mL (≈ 3.86 µM), the ED50 [11] was 11 mg/kg and the ED50 [12] was 30 mg/kg. It also gave an ED50 [13] of 152 mg/kg, an MIC [14] of 8 µg/mL (≈ 15.5 µM) and an MIC [15] greater than 64 µg/mL. It also gave an ED50 [16] of 30 mg/kg, an ED50 [17] of 47 mg/kg and an MIC [18] of 4 µg/mL. It also gave an ED50 [19] of 32 mg/kg, an MIC [20] of 4 µg/mL and an ED50 [21] of 40 mg/kg. It also gave an MIC [22] greater than 64 µg/mL, an ED50 [23] of 246 mg/kg and an MIC [24] of 8 µg/mL. It also gave an ED50 [25] of 24 mg/kg, an ED50 [26] of 270 mg/kg and an ED50 [27] of 69 mg/kg. The MIC [28] was 0.25 µg/mL, the ED50 [29] was 58 mg/kg and the MIC [30] was greater than 64 µg/mL. The ED50 [31] was 45 mg/kg, the MIC [32] was 8 µg/mL (≈ 15.5 µM) and the MIC [33] was greater than 64 µg/mL. The MIC [34] was greater than 64 µg/mL and the MIC [35] was 128 µg/mL.
